Measurements from paper PMC10321483 (Chemical Science, 2023).
Values joined by “and” are separate entries in the source; they are usually repeats but may differ in a detail not shown here. Equal entries are not always repeated. Where two headings read alike, the source gives them in different places.

What was measured:
Type in all cases: biochemical
[1] = target: T1, LdtMt2 (Mycobacterium tuberculosis, UniProt I6Y9J2); assay: biochemical; design: made in house; host or cells: E. coli
[2] = target: T2, BlaC (Mycobacterium tuberculosis, UniProt P9WKD3); assay: BlaC fluorogenic inhibition assay with FC5 (dose-response)
T2 construct: made in house; host or cells: E. coli
T2 sequence (P9WKD3 35-307): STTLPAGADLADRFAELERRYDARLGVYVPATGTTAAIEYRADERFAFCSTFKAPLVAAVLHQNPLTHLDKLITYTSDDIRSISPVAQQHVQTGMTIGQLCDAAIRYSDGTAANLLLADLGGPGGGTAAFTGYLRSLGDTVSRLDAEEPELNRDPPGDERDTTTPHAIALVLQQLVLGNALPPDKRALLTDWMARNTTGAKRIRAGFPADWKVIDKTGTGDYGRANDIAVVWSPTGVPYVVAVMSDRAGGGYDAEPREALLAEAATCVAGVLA
Procedure: Two types of controls were used. […] In control 2, the BlaC mixture was substituted with the assay buffer. This mixture was incubated for 30 minutes at room temperature without shaking. […] Data were analysed using ActivityBase (IDBS).

[3] = target: T1, LdtMt2; assay: Rate constant of covalent target inactivation (kinact/KI), endpoint competition assay with probe 2; design: made in house; host or cells: E. coli; conditions: from kobs, LdtMt2 100 nM, probe 2 100 nM to 10 μM
[4] = Table S3 tool compounds, 10 min incubation, 2.5 nM BlaC, 2.5 µM FC5, n=4, read-out: pIC50 BlaC (mean ± SD) (converted)
[5] = Table S4 HTS validation, 30 minutes inhibitor pre-incubation, n=8, read-out: pIC50 BlaC (mean ± SD) (converted)
[6] = Table S4 HTS validation, 30 minutes inhibitor pre-incubation, n=6, read-out: pIC50 LdtMt2 (mean ± SD) (converted)
[7] = Table S3 tool compounds, 10 min incubation, 2.5 nM BlaC, 2.5 µM FC5, n=4
[8] = Table S4 HTS validation, 30 minutes inhibitor pre-incubation, n=6

T1 sequence (I6Y9J2 56-408): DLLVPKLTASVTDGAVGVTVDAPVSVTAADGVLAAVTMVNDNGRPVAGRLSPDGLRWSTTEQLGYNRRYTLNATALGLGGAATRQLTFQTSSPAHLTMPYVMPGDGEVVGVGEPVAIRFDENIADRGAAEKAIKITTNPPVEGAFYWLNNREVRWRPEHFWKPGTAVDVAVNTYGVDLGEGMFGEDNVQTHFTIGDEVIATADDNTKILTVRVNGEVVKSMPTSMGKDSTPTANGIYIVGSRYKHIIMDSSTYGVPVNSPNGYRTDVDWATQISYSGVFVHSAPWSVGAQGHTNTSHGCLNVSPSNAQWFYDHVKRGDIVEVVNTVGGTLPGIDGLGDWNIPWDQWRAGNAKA

CN(C)c1cc[n+](C#N)cc1 [Compound 43, 1-cyano-4-dimethylaminopyridinium tetrafluoroborate, reference compound]
IC50 ([1]; pIC50 LdtMt2): 5010 nM

N#CSc1ccc([N+](=O)[O-])c(C(=O)O)c1 [Compound 44, 2-nitro-5-thiocyanobenzoic acid, reference compound]
IC50 ([1]; Table S10 known cyanating compounds, read-out: pIC50 LdtMt2 (converted)): 1450 nM

C[C@@H](O)[C@H]1C(=O)N2C(C(=O)O)=C(S[C@@H]3CN[C@H](CNS(N)(=O)=O)C3)[C@H](C)[C@H]12 [Doripenem, reference compound]
IC50 [2, 4]: 41.7 nM | IC50 [2, 5]: 14.1 nM | IC50 ([1]; pIC50 LdtMt2 (mean ± SD)): 5010 nM and 1700 nM

O=c1c2ccccc2[se]n1-c1ccccc1 [Ebselen]
IC50 [2, 4]: 1510 nM | IC50 [2, 5]: 302 nM | IC50 [1, 6]: 214 nM

C[C@@H](O)[C@H]1C(=O)N2C(C(=O)O)=C(S[C@@H]3CN[C@H](C(=O)Nc4cccc(C(=O)O)c4)C3)[C@H](C)[C@H]12 [Ertapenem, reference compound]
IC50 [2, 4]: 178 nM | IC50 [2, 5]: 67.6 nM | IC50 [1, 6]: 776 nM | IC50 ([1]; pIC50 LdtMt2 (mean ± SD)): 1580 nM

C[C@@H](O)[C@H]1C(=O)N2C(C(=O)O)=C([C@H]3CCCO3)S[C@H]12 [Faropenem]
IC50 [2, 4]: 447 nM | IC50 [2, 5]: 468 nM

Cc1onc(-c2c(F)cccc2Cl)c1C(=O)N[C@@H]1C(=O)N2[C@@H]1SC(C)(C)[C@@H]2C(=O)O [Flucloxacillin, reference compound]
IC50 [2, 4]: 135 nM | IC50 [2, 5]: 77.6 nM | IC50 [1, 6]: 1050 nM | IC50 ([1]; pIC50 LdtMt2 (mean ± SD)): 25100 nM

NC(=O)CI [Iodoacetamide, reference compound]
pIC50 BlaC (mean ± SD) [2, 7]: < 4.0 | pIC50 LdtMt2 (mean ± SD) [1]: 5.8 ± 0.03 | pIC50 LdtMt2 (mean ± SD) [1, 8]: 6.05 ± 0.03

O=C1C=CC(=O)N1 [Maleimide, reference compound]
IC50 ([2]; pIC50 BlaC (mean ± SD), Table S3 tool compounds, 10 min incubation, 2.5 nM BlaC, 2.5 µM FC5, n=4): > 100000 nM | IC50 ([1]; pIC50 LdtMt2 (mean ± SD)): 3980 nM and 2240 nM

C[C@@H](O)[C@H]1C(=O)N2C(C(=O)O)=C(S[C@@H]3CN[C@H](C(=O)N(C)C)C3)[C@H](C)[C@H]12 [Meropenem, reference compound]
IC50 [2, 4]: 141 nM | IC50 [2, 5]: 40.7 nM | IC50 [1, 6]: 1350 nM | IC50 ([1]; pIC50 LdtMt2 (mean ± SD)): 10000 nM

Cc1onc(-c2ccccc2)c1C(=O)N[C@@H]1C(=O)N2[C@@H]1SC(C)(C)[C@@H]2C(=O)O [Oxacillin, reference compound]
IC50 [2, 4]: 158 nM | IC50 [2, 5]: 67.6 nM | IC50 [1, 6]: 6030 nM | IC50 ([1]; pIC50 LdtMt2 (mean ± SD)): 63100 nM

CCC(C)SSc1ncc[nH]1 (centres unmarked) [PX-12, reference compound]
pIC50 BlaC (mean ± SD) [2, 7]: < 4.0 | pIC50 LdtMt2 (mean ± SD) [1]: 5.9 ± 0.01 and 6.09 ± 0.03

CC(=N)N1CC[C@H](SC2=C(C(=O)O)N3C(=O)[C@H]([C@@H](C)O)[C@H]3C2)C1 [Panipenem, reference compound]
IC50 [2, 4]: 166 nM | IC50 [2, 5]: 93.3 nM | IC50 [1, 6]: 1230 nM | IC50 ([1]; pIC50 LdtMt2 (mean ± SD)): 316 nM

O=C(NC1CCNCC1)[C@@H]1CC[C@@H]2CN1C(=O)N2OS(=O)(=O)O [Relebactam]
IC50 [2, 4]: 33100 nM | IC50 [2, 5]: 3980 nM | IC50 ([1]; pIC50 LdtMt2 (mean ± SD)): > 100000 nM

C[C@@H](O)[C@H]1C(=O)N2C(C(=O)O)=C(S[C@H]3CC[S@@+]([O-])C3)S[C@H]12 [Sulopenem, reference compound]
pIC50 BlaC (mean ± SD) [2, 7]: 6.60 ± 0.12 | pIC50 BlaC (mean ± SD) ([2]; Table S4 HTS validation, 30 minutes inhibitor pre-incubation, n=8): 6.86 ± 0.02 | pIC50 LdtMt2 (mean ± SD) [1]: 6.2 ± 0.03 | pIC50 LdtMt2 (mean ± SD) [1, 8]: 6.35 ± 0.02

CN(C)C(=S)SSC(=S)N(C)C [Thiram, reference compound]
IC50 [2, 4]: > 100000 nM | IC50 [1, 6]: 170 nM | IC50 ([1]; pIC50 LdtMt2 (mean ± SD)): 158 nM

CC1(C)S[C@@H]2[C@H](NC(=O)[C@H](C(=O)O)c3ccsc3)C(=O)N2[C@H]1C(=O)O [Ticarcillin, reference compound]
IC50 [2, 4]: 11700 nM | IC50 [2, 5]: 14500 nM | IC50 [1, 6]: 44700 nM | IC50 ([1]; pIC50 LdtMt2 (mean ± SD)): > 100000 nM

O=C(NNC(=O)[C@@H]1CC[C@@H]2CN1C(=O)N2OS(=O)(=O)O)[C@@H]1CCCNC1 [Zidebactam, reference compound]
IC50 [2, 4]: 70800 nM | IC50 [2, 5]: 7240 nM | IC50 [1, 6]: 13200 nM | IC50 ([1]; pIC50 LdtMt2 (mean ± SD)): 100000 nM

O=C1OC2(c3ccc(O)cc3Oc3cc(OS(=O)(=O)c4ccc([N+](=O)[O-])cc4[N+](=O)[O-])ccc32)c2ccccc21 (centres unmarked) [probe 2, reference compound]
(kinact/KI)probe [3]: 39.8 M⁻¹ s⁻¹
